From PMC9200803, “Design, synthesis, and biological evaluation of tetrahydroquinolinones and tetrahydroquinolines with anticancer activity” (Scientific Reports, 2022)

Assays:
HCT-116 cells [1] = experiment: ROS level, H2DCFDA probe, flow cytometry, HCT-116; type: cell-based
Description: Reactive oxygen species (ROS) affect the cellular redox homeostasis resulting in extensive and irreparable damage and ultimately cell death. Anticancer compounds with cytotoxic properties often cause disturbances in the redox state in cells. Therefore, we performed a time-dependent kinetic analysis of the intracellular ROS level in colon cancer cell lines after treatment with 20d.
The […] ROS levels were determined using an H2DCFDA (2′,7′-dichlorodihydrofluorescein diacetate) probe (Thermo Fisher) following the manufacturer’s protocol. […] DMSO (1%, Merck) and 250 μM H2O2 were used as a negative and positive control, respectively. NAC (500 μM, Sigma-Aldrich) was used as an ROS scavenger to confirm the ROS activity. After treatment with 20d and 19b, cells were incubated with H2DCFDA at 37 °C for 30 min. Subsequently, cells were harvested by trypsinization, rinsed with PBS, and stained with 7-AAD (Thermo Fisher). Finally, the stained cells were analyzed by flow cytometry using a Guava easyCyte 8 cell sorter (Merck Millipore) and FlowJo v10 software.
ROS analysis was performed by seeding the cells into cover glass-bottom 24-well plates for live-cell imaging. Cells were treated with compounds and stained as described above for flow cytometry. […]

A-549 cells [2] = experiment: ROS level, H2DCFDA probe, flow cytometry, A-549; type: cell-based, human; settings: A-549, IC50 concentration, 1-24 h
MCF-7 cells = experiment: MTT cell viability assay, MCF-7; type: cell-based, human; settings: Homo sapiens, MCF7, 72 h, IC50 ± SD
Description: (§1) To evaluate the effects of the newly synthesized tetrahydroquinolin-2(1H)-one derivatives on cell viability, we treated human colon cancer cells HCT-116, human breast cancer cells MCF-7, and human non-small cell lung cancer cells A-549 with different concentrations of the compounds for 72 h. After incubation, the MTT (3-(4,5-dimethylthiazol-2-yl)-2,5-diphenyltetrazolium bromide) assay was performed and the cytotoxic potency of compounds (expressed in IC50) on the cells was determined in comparison to control cells treated with 1% of dimethyl sulfoxide (DMSO) (Table 1). […] We also compared the activity of 20d and 19b to the reference control drug Cisplatin, which is widely used in chemotherapy.
(§2) A-549 (CCL-185) and MCF-7 ([…]) cells were cultured in RPMI-1640 medium, while HCT-116 (CVCL-427), (hMLH1)-deficient (MMR^–) and hMLH1-proficient (MMR^+) RKO cells were cultured in McCoy’s 5A medium. The culture media were supplemented with 10% fetal bovine serum, 2 mM L-glutamine, and antibiotics (penicillin 62.6 µg/ml and streptomycin 40 µg/ml). Cultivation of cell lines was carried out at 37 °C under a humidified atmosphere containing 5% CO2, and the cultures were routinely screened for Mycoplasma contamination. A-549, MCF-7, and HCT-116 cells were obtained from American Type Culture Collection (ATCC), while RKO colon carcinoma cells were a kind gift of Dr Timothy Kinsella (Brown University, USA).
(§3) The viability of cells was determined in response to the newly synthesized compounds using the MTT (Sigma-Aldrich) assay. Briefly, cells were seeded into 96-well plates and allowed to attach overnight. Then, cells were exposed to various concentrations of compounds for 24, 48 or 72 h. Negative controls were treated with the same amount of DMSO solvent (1%). After treatment, the MTT solution (0.4 mg/ml) was added to each well and allowed to react with cells for 2–3 h at 37 °C. Next, the medium was removed, the formazan product formed was dissolved in 100 μl of DMSO, and the absorbance was determined at 540 nm using an ASYS UVM340 microplate reader (Biochrom Ltd.). The IC50 value, which represents the concentration of the compound required to inhibit cell growth by 50% compared to vehicle, was calculated using GraphPad Prism 8 software based on the curves plotting survival against dose averaged from at least three independent experiments.

HCT-116 cells [3] = experiment: Wound healing assay; type: cell-based, human; settings: HCT-116, 10 and 20 µM, 30 and 36 h of treatment
Description: A decrease in cell–cell adhesion correlates with tumor invasion and metastasis. Migration leads to spreading and metastasis of cancer cells and is thus associated with poor prognosis of many types of cancer. Moreover, studies indicate that metastasis is the major cause of death in patients with colorectal cancer (CRC)[58]. To investigate the effect of 20d on migration, HCT-116 cells were cultured and investigated by wound healing assay. The percentage of migration was monitored over time by capturing a series of images after every 6 h up to 36 h of treatment.
The antimigratory properties of 20d were investigated in HCT-116 cell line using wound healing assay. Briefly, cells were seeded and allowed to attach to the Ibidi-silicone insert on a cover glass-bottom 24-well plate for live-cell imaging. Next, the inserts were dislodged, and subsequently, cells were washed with a fresh medium and incubated with various concentrations of 20d in an imaging chamber (cellVivo incubation system, Olympus). For monitoring the migration of cells by live-cell microscopy with time-lapse photography, images were captured every 15 min for 36 h under 10× magnification using a fluorescence microscope (IX83 Inverted Microscope, Olympus) equipped with an XC50 phase-contrast digital color camera (Olympus). The distance between gaps was measured using ImageJ software.

A-549 cells [4] = experiment: MTT cell viability assay, A-549; type: cell-based, human
Description: as §1, §2, §3

[5] = system: hMLH1-proficient (MMR+) RKO cells; experiment: MTT cell viability assay, hMLH1-proficient (MMR+) RKO; type: cell-based; settings: Homo sapiens, mean ± SD
From the text: (§4) We further attempted to determine whether 20d-induced cancer cell death was related to the induction of ROS production in HCT-116 cells. For this purpose, we pretreated cells with N-acetyl-L-cysteine (NAC), which is a commonly used antioxidant and ROS scavenger. […] HCT-116 cell line has high-frequency microsatellite instability, which is associated with deficient DNA mismatch repair (MMR)[31]. The MMR system corrects DNA-mismatched and insertion–deletion loop bases generated during DNA replication. One of the key proteins involved in the MMR pathway is MLH1, which is mutated or epigenetically silenced in many MMR-deficient (MMR^–) cells, such as HCT-116[33]. To further determine the selectivity for MMR deficiency, we analyzed the cell viability of human MutL homologue 1 (hMLH1)-deficient (MMR^–) and hMLH1-proficient (MMR^+) RKO human colon carcinoma cell lines. The latter was established by transfecting hMLH1 cDNA into MMR^− RKO cell line[34]. In MMR^– RKO cells, the hMLH1 gene promoter was silenced transcriptionally by hypermethylation. […]
(§5) The viability of cells was determined in response to the newly synthesized compounds using the MTT (Sigma-Aldrich) assay. […] Next, the medium was removed, the formazan product formed was dissolved in 100 μl of DMSO, and the absorbance was determined at 540 nm using an ASYS UVM340 microplate reader (Biochrom Ltd.). […]

[6] = system: hMLH1-deficient (MMR–) RKO cells; experiment: MTT cell viability assay, hMLH1-deficient (MMR–) RKO; type: cell-based, human
From the text: as §4, §5

For O=C(Nc1cccc(F)c1)OC1CCCc2c(-c3ccccc3)cc(=O)[nH]c21 (stereo not shown) [Compound 20d, (2-oxo-4-phenyl-5,6,7,8-tetrahydroquinolin-8-yl) N-(3-fluorophenyl)carbamate], the “increase in ROS level compared to vehicle” value (HCT-116 cells [1]; HCT-116, IC50 concentration, 1-24 h) was ~ 30%, the “cytotoxic effect after pretreatment with NAC” value (HCT-116 cells [1]; HCT-116, NAC 500 μM) was “NAC diminished the cytotoxic effect” and the “increase in ROS level compared to vehicle” value (A-549 cells [2]) was ~5%. The IC50 (MCF-7 cells) was > 50 µM, the inhibition of migration (HCT-116 cells [3]) was 30–50% and the “fold lower concentration than Cisplatin suppressing 50% of cell viability” value (A-549 cells [4]; A-549) was 5 fold. For the same molecule, the IC50 (A-549 cells [4]; Homo sapiens, A549, MTT, 72 h, IC50 ± SD) was 12.6 ± 0.54 µM, the IC50 [5] was 4.78 ± 0.38 µM and the IC50 ([6]; Homo sapiens, RKO, mean ± SD) was 1.21 ± 0.13 µM. The “fold higher sensitivity of MMR– RKO vs MMR+ RKO cells” value ([6]; p < 0.001) was 3.95 fold.
